Data taken from patent publication US8450342B2, “Perharidines as CDK inhibitors” (Centre Nationale de la Recherche Scientifique, priority 2008, dated 2013).
Where “and” joins values, the source holds several entries; their conditions need not be identical. Identical values can stand only once. Like-named read-outs stand apart in the source and are kept apart here.

Tests used:
CK1δ/ε = assay: CK1 kinase assay; type: biochemical, porcine
Description: (§1) Blank values were subtracted and activities expressed in % of the maximal activity, i.e. in the absence of inhibitors. Controls were performed with appropriate dilutions of dimethylsulfoxide.

CDK1/cyclin B = CDK1/cyclin B kinase assay; type: biochemical, starfish
Description: (§2) Controls were performed with appropriate dilutions of dimethylsulfoxide.
(§3) ATP (3,000 Ci/mmol; 10 mCi/ml) in a final volume of 30 μl. After 30 min. incubation at 30° C., 25 μl aliquots of supernatant were spotted onto 2.5×3 cm pieces of Whatman P81 phosphocellulose paper, and, 20 sec. later, the filters were washed five times (for at least 5 min. each time) in a solution of 10 ml phosphoric acid/liter of water. The wet filters were counted in the presence of 1 ml ACS (Amersham) scintillation fluid.

[1] = system: SH-SY5Y human neuroblastoma cells; assay: Cell survival (MTS assay), SH-SY5Y; type: cell-based
Description: (§4) SH-SY5Y human neuroblastoma cells were grown in DMEM medium (Invitrogen, Cergy Pontoise, France). […] Human foreskin primary fibroblasts (kindly provided by Dr. Gilles Ponzio) were grown in DMEM supplemented with 2 mM L-glutamine and 20 mM HEPES. All the media were supplemented with antibiotics (penicillin-streptomycin) from Lonza and 10% volume of FCS from Invitrogen. Cells were cultured at 37° C. with 5% CO2. Drug treatments were performed on exponentially growing cultures at the indicated time and concentrations. Control experiments were carried out using appropriate dilutions of DMSO. MDCK cell-lines were used to test compounds PKD.

GSK-3α/β = GSK-3α/β kinase assay; type: biochemical, porcine
Description: as §1

CDK5/p25 = target: T1, CDK5/p25 (Homo sapiens, UniProt Q00535); assay: CDK5/p25 kinase assay; type: biochemical
T1 construct: made in house
Description: as §2, §3

CDK9/cyclin T = target: T2, CDK9/cyclin T (Homo sapiens, UniProt P50750); assay: CDK9/cyclin T kinase assay; type: biochemical
T2 construct: made in house; host or cells: insect cells
Description: as §1

pyridoxal kinase (PDXK) = target: T3, pyridoxal kinase (PDXK) (Sus scrofa, UniProt O46560); assay: Competition on agarose beads with porcine brain lysate (silver staining assay), pyridoxal kinase; type: binding; conditions: FIG. 1, 500 μM or 100 μM
T3 construct: 1000 μg of porcine brain lysate; from tissue; host or cells: porcine brain lysate
Text: Indeed, the interaction of the compounds of the invention with pyridoxal kinase has been determined by the following method: (silver staining assay)

[2] = system: RNA polymerase II Ser2 phosphorylation; assay: Western blot, RNA polymerase II Ser2 phosphorylation in SH-SY5Y; type: cell-based, human; conditions: FIG. 10
Description: SH-SY5Y human neuroblastoma cells were grown in DMEM medium (Invitrogen, Cergy Pontoise, France). The HEK 293 human embryonic kidney cell line was grown in MEM medium from Invitrogen. Human foreskin primary fibroblasts (kindly provided by Dr. Gilles Ponzio) were grown in DMEM supplemented with 2 mM L-glutamine and 20 mM HEPES. All the media were supplemented with antibiotics (penicillin-streptomycin) from Lonza and 10% volume of FCS from Invitrogen. Cells were cultured at 37° C. with 5% CO2. Drug treatments were performed on exponentially growing cultures at the indicated time and concentrations. Control experiments were carried out using appropriate dilutions of DMSO. MDCK cell-lines were used to test compounds PKD.
Cells were resuspended and lysed for 30 minutes at 4° C. in Homogenization Buffer [60 mM β-glycerophosphate, 15 mM p-nitrophenyl phosphate, 25 mM MOPS (pH 7.2), 15 mM EGTA, 15 mM MgCl2, 1 mM dithiothreitol, 1 mM sodium vanadate, 1 mM NaF, 1 mM phenylphosphate, 0.1% Nonidet P-40 and protease inhibitor cocktail] and sonicated. After centrifugation (14000 rpm for 15 minutes at 4° C.), the protein concentration was determined in the supernatants by the Bradford protein assay (Bio-Rad).
Whole cell extracts were prepared in buffer containing 100 mM Tris/HCl (pH, 6.8), 1 mM EDTA, 2% SDS and protease inhibitor cocktail. Following heat denaturation for 5 minutes, proteins were separated on 10% or 7% NuPAGE pre-cast Bis-Tris or Tris-Acetate polyacrylamide mini gels (Invitrogen) with MOPS SDS (all but cytochrome C, RNA polymerase II and phospho-Ser2—RNA polymerase II Western blots), MES SDS (cytochrome C), or Tris-Acetate SDS (RNA polymerase II and phospho-Ser2—RNA polymerase II) running buffer depending on protein size. Proteins were transferred to 0.45 μm nitrocellulose filters (Schleicher and Schuell). These were blocked with 5% low fat milk in Tris-Buffered Saline—Tween-20, incubated for 1 h with antibodies (anti-actin: 1:2000) or overnight at 4° C. (cytochome C: 1:500), Rb (1:500), phosphor-Rb (1:500), phospho-Thr320-PP1α (1:1000), RNA polymerase II (1:500), phosphor-Ser2-RNA polymerase II (1:500), Mcl-1 (1:500), caspase-9 (1:1000) and analyzed by Enhanced Chemiluminescence (ECL, Amersham).

Erk2 [3] = target: T4, Erk2 (Sus scrofa, UniProt A0A8W4FG96); assay: Competition on agarose beads with porcine brain lysate (silver staining assay), Erk2; type: binding; conditions: FIG. 1, 500 μM or 100 μM
T4 construct: 1000 μg of porcine brain lysate; from tissue; host or cells: porcine brain lysate

CDK2/cyclin A = target: T5, CDK2/cyclin A (Homo sapiens, UniProt P24941); assay: CDK2/cyclin A kinase assay; type: biochemical
T5 construct: made in house; host or cells: insect cells
Description: as §1
CDK2/cyclin A (human, recombinant, expressed in insect cells) was assayed as described for CDK1/cyclin B.

LS 174T (Oncodesign) = assay: Cell survival, LS 174T (Oncodesign); type: cell-based; conditions: Homo sapiens, LS174T; Table 6
B2-CLL lymphocytes = assay: Survival / cell death of B2-CLL lymphocytes from patients; type: cell-based, human; conditions: Homo sapiens, Lymphocyte
Description: Cell viability was determined by measuring the reduction of 3-(4,5-dimethylthiazol-2-yl)-5-(3-carboxymethoxyphenyl)-2-(4-sulfophenyl)-2/H-tetrazolium (MTS). Cell death was determined by measuring the level of lactate dehydrogenase activity (LDH) released upon cell lysis.

Erk2 [4] = target: Erk2 (Homo sapiens, UniProt P28482); assay: Erk2 kinase assay; type: biochemical; conditions: Table 5
Description: as §1
(§5) The compounds were tested at various concentrations in the kinase assays, as described in the Methods section.

DYRK1A = DYRK1A (Homo sapiens, UniProt Q13627); assay: DYRK1A kinase assay; type: biochemical
Description: as §1, §5

HCT116 (Oncodesign) = assay: Cell survival, HCT116 (Oncodesign); type: cell-based; conditions: Homo sapiens, HCT-116; Table 6
CDK2/cyclin E = CDK2/cyclin E (Homo sapiens, UniProt P24941); assay: CDK2/cyclin E kinase assay; type: biochemical; conditions: Table 5
Description: as §2, §5

[5] = system: HEK 293 human embryonic kidney cell line; assay: Cell survival (MTS assay), HEK293; type: cell-based; conditions: HEK293, Table 4, MTS assay
Description: as §4

[6] = read-out: Inhibition of CK1, IC50
[7] = read-out: Inhibition of CDK1/cyclin B, IC50
[8] = read-out: Inhibition of the tumor cell-line SHSY-5Y, IC50
[9] = read-out: Inhibition of GSK3beta, IC50
[10] = read-out: Inhibition of CDK5/p25, IC50
[11] = Table 4, MTS assay, read-out: SH-SY5Y cell survival
[12] = read-out: Inhibition of DYRK1A, IC50

T1 sequence (Q00535 whole entry): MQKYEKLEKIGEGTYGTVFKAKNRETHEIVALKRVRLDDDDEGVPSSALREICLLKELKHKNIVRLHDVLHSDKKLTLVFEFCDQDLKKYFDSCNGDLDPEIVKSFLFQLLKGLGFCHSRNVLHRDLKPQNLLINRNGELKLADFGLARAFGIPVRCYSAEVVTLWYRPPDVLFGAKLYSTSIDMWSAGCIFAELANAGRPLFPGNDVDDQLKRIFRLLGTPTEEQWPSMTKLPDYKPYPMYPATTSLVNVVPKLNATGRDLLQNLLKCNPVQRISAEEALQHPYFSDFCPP
T1 sequence (Q15078 99-307 partner limits assumed): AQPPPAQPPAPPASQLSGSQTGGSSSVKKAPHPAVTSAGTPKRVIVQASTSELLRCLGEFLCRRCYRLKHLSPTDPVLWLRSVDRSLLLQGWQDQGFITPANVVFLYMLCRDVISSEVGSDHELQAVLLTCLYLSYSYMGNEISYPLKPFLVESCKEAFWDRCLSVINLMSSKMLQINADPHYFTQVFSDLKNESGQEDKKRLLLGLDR
T2 sequence (P50750 whole entry): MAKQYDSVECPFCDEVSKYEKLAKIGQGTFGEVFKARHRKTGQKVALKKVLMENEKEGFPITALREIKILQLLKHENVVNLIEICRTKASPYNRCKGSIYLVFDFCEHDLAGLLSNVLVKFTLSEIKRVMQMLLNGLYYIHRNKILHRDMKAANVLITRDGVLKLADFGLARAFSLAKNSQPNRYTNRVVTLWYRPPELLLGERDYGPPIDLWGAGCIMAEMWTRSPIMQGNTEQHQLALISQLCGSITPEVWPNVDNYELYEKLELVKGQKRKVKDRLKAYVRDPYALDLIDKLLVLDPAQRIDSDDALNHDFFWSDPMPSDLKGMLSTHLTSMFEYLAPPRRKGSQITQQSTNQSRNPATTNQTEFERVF
T2 sequence (O60563 whole entry partner): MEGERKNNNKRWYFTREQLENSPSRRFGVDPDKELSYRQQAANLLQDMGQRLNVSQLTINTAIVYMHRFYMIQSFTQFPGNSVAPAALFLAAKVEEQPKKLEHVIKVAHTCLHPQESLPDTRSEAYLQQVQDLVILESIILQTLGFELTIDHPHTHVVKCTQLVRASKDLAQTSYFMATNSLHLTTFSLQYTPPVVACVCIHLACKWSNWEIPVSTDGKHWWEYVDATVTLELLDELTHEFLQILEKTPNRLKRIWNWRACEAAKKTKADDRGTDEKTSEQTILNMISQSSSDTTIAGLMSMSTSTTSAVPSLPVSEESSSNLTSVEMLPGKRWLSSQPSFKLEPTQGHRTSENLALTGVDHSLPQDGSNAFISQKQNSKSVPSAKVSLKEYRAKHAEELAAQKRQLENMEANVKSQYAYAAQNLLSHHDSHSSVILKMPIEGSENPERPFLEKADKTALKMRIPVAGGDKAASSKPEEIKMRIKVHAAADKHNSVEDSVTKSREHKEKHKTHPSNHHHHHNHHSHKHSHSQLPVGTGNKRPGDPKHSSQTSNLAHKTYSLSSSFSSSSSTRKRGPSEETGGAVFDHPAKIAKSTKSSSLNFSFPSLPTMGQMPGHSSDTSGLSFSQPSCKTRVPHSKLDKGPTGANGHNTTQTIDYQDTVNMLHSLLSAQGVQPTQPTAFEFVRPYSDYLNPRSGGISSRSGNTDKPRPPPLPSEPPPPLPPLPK
T3 sequence (O46560 whole entry): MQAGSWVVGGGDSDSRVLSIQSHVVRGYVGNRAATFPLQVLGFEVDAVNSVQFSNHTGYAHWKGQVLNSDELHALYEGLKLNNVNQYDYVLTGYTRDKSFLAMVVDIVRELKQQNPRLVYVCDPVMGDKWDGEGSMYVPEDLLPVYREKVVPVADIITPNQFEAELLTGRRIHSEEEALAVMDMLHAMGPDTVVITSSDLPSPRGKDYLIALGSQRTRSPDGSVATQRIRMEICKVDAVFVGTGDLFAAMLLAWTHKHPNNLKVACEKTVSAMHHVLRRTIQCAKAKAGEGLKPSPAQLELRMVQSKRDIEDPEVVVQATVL
T4 sequence (A0A8W4FG96 1-358): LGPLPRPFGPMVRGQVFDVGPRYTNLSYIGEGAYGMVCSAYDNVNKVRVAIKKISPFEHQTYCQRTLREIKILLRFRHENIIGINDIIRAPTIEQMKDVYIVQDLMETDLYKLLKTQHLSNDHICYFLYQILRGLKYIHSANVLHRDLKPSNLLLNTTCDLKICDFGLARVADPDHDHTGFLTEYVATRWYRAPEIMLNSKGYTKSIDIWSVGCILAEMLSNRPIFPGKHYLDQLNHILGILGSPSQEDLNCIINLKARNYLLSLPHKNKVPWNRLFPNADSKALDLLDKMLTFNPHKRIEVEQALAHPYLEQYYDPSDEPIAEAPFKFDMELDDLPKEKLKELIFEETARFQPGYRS
Chain of Erk2 (Homo sapiens, UniProt P28482) (P28482 whole entry, species assumed): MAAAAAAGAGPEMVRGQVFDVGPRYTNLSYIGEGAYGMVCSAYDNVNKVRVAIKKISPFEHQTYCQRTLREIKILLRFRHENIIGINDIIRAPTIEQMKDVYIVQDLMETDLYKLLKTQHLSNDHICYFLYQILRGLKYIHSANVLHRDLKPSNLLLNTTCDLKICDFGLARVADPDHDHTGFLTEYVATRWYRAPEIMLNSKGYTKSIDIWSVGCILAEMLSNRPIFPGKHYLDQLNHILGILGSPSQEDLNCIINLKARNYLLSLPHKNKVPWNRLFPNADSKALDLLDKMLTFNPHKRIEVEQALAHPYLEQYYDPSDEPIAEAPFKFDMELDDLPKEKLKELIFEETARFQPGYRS

CC(C)n1cnc2c(NCc3ccc(-c4ccccn4)cc3)cc(NC(CO)[C@@H](C)O)nc21 (stereo in doubt) [Ij, (R,R)-2-[[3-isopropyl-7-[[4-(2-pyridyl)phenyl]methylamino]imidazo[4,5-b]pyridin-5-yl]amino]butane-1,3-diol]
IC50 (CK1δ/ε; [6]): 530 nM | IC50 (CDK1/cyclin B; [7]): 150 nM | IC50 [1, 8]: 150 nM | IC50 (GSK-3α/β; [9]): 13000 nM | IC50 (CDK5/p25; [10]): 180 nM | IC50 (CDK9/cyclin T; read-out: Inhibition of CDK9/cyclin T, IC50): 140 nM

CC[C@H](CO)Nc1nc(NCc2ccccc2)c2ncn(C(C)C)c2n1 [(R)-Roscovitine, Roscovitine]
competitor effect for pyridoxal kinase (PDXK) (pyridoxal kinase (PDXK)): exhibited a competitor effect | total RNA pol II [2]: essentially constant | competitor effect for Erk2 (Erk2 [3]): exhibited a competitor effect

CC[C@@H](CO)Nc1cc(NCc2ccc(-c3ccccn3)cc2)c2ncn(C(C)C)c2n1 [(S)-perharidine D, (S)-7-[4-(2-Pyridyl)-benzylaminol]-5-[(2-butyl-1ol)amino]-3-iso-propylimidazo[4,5-b]pyridine]
IC50 (CK1δ/ε; Table 5, read-out: CK1): 1900 nM | IC50 (CDK2/cyclin A; Table 5, read-out: CDK2/cyclin A): 150 nM | IC50 (CDK1/cyclin B; Table 5, read-out: CDK1/cyclin B): 270 nM | IC50 (LS 174T (Oncodesign)): 99 nM | IC50 (B2-CLL lymphocytes; LLC B-cells, read-out: Cell death induction): 130 nM | IC50 (B2-CLL lymphocytes; Table 6, read-out: Chronic Lymphocytic Leukemia cell survival): 130 nM | IC50 ([1]; Table 6, MTS assay, read-out: SH-SY5Y cell survival): 660 nM | IC50 (GSK-3α/β; Table 5, read-out: GSK-3α/β): 24500 nM | IC50 (CDK5/p25; Table 5, read-out: CDK5/p25): 200 nM | IC50 (CDK9/cyclin T; Table 5, read-out: CDK9/cyclin T): 120 nM | IC50 (Erk2 [4]): 9000 nM | IC50 (DYRK1A; Table 5, read-out: DYRK1A): 2800 nM | IC50 (HCT116 (Oncodesign)): 300 nM | IC50 (CDK2/cyclin E): 100 nM

CC(C)n1cnc2c(NCc3ccccc3)cc([N+](=O)[O-])nc21 [Formula Ie]
IC50 (CK1δ/ε; Table 4, read-out: CK1): 1000 nM | IC50 (CDK1/cyclin B; Table 4, read-out: CDK1): 1000 nM | IC50 [1, 11]: 74000 nM | IC50 (GSK-3α/β; Table 4, read-out: GSK3): > 10000 nM | IC50 (CDK5/p25; Table 4, read-out: CDK5): 800 nM | IC50 [5]: 46000 nM

CC(C)n1cnc2c(NCc3ccccc3)cc(N)nc21 [Formula If]
IC50 (CK1δ/ε; Table 4, read-out: CK1): 8000 nM | IC50 (CDK1/cyclin B; Table 4, read-out: CDK1): 4000 nM | IC50 [1, 11]: > 100000 nM | IC50 (GSK-3α/β; Table 4, read-out: GSK3): > 10000 nM | IC50 (CDK5/p25; Table 4, read-out: CDK5): 3800 nM | IC50 [5]: > 100000 nM

CC(C)n1cnc2c(NCc3ccccc3)cc(NC(=O)C(F)(F)F)nc21 [Formula Ig]
IC50 (CK1δ/ε; Table 4, read-out: CK1): 3000 nM | IC50 (CDK1/cyclin B; Table 4, read-out: CDK1): 530 nM | IC50 [1, 11]: > 100000 nM | IC50 (GSK-3α/β; Table 4, read-out: GSK3): > 10000 nM | IC50 (CDK5/p25; Table 4, read-out: CDK5): 630 nM | IC50 [5]: > 100000 nM

CC(C)n1cnc2c(NCc3ccc(-c4ccccn4)cc3)cc(NC[C@H](O)CO)nc21 [Ik, (2S)-3-[[3-isopropyl-7-[[4-(2-pyridyl)phenyl]methylamino]imidazo[4,5-b]pyridin-5-yl]amino]propane-1,2-diol]
IC50 (CK1δ/ε; [6]): 380 nM | IC50 (CDK2/cyclin A; unit inferred, read-out: Inhibition of CDK2/cyclin A, IC50): 120 nM | IC50 (CDK1/cyclin B; [7]): 200 nM | IC50 [1, 8]: 180 nM | IC50 (GSK-3α/β; [9]): > 10000 nM | IC50 (CDK5/p25; [10]): 170 nM

CC[C@@H](CO)Nc1cc(NCc2ccc(-c3ccccc3)cc2)c2ncn(C(C)C)c2n1 [Il, (2S)-2-[[3-isopropyl-7-[(4-phenylphenyl)methylamino]imidazo[4,5-b]pyridin-5-yl]amino]butan-1-ol]
IC50 (CK1δ/ε; [6]): 2000 nM | IC50 (GSK-3α/β; [9]): > 10000 nM | IC50 (CDK5/p25; unit inferred, read-out: Inhibition of CDK5/p25, IC50): 600 nM | IC50 (DYRK1A; [12]): 4500 nM

CC[C@H](CO)Nc1cc(NCc2ccc(-c3ccccc3)cc2)c2ncn(C(C)C)c2n1 [Im, (R) 2-[[3-isopropyl-7-[(4-phenylphenyl)methylamino]imidazo[4,5-b]pyridin-5-yl]amino]butan-1-ol]
IC50 (CK1δ/ε; [6]): 1200 nM | IC50 (CDK5/p25; [10]): 810 nM

CC[C@@H](N)COc1cc(NCc2ccc(-c3ccccc3)cc2)c2ncn(C(C)C)c2n1 [In, (R)-5-(2-aminobutoxy)-3-isopropyl-N-[(4-phenylphenyl)methyl]imidazo[4,5-b]pyridine-7-amine]
IC50 (CK1δ/ε; [6]): 120 nM | IC50 (GSK-3α/β; [9]): 7000 nM | IC50 (CDK5/p25; [10]): 550 nM | IC50 (DYRK1A; [12]): 4000 nM

CC[C@H](N)COc1cc(NCc2ccc(-c3ccccc3)cc2)c2ncn(C(C)C)c2n1 [Ip, (S)-5-(2-aminobutoxy)-3-isopropyl-N-[(4-phenylphenyl)methyl]imidazo[4,5-b]pyridin-7-amine]
IC50 (CK1δ/ε; [6]): 220 nM | IC50 (GSK-3α/β; [9]): 7000 nM | IC50 (DYRK1A; [12]): 3300 nM

CC(C)n1cnc2c(NCc3ccc(-c4ccccn4)cc3)cc(NC(CO)CO)nc21 [Perharidine E, 3-Iso-Propyl-5-(1,3-dihydroxypropylamino)-7-[4-(2-pyridyl)-benzylamino]-imidazo[4,5-b]pyridine]
IC50 (CK1δ/ε; [6]): 280 nM | IC50 (CDK5/p25; [10]): 340 nM and 350 nM
